{"source": "patent US12252708B2", "about": "“Living mammalian cells modified with functional modular nanoparticles” (UNM Rainforest Innovations, priority 2018, dated 2025)", "test_system": "HeLa cells", "test": "Cytoprotection test to DOX", "type": "cell-based", "conditions": "native HeLa cells and SupraCell-MIL-100(Fe); nearly identical dose response curve; 2 hours", "protocol": "Then, the anticancer drug doxorubicin (diameter about 1.6 nm) or cytotoxic silver (Ag) nanocrystals (diameter about 5.0 nm) were added into the culture medium at different concentrations.\nCytoprotection test to DOX. The cytoprotection test was performed on Supracell-MIL-100 (Fe). Briefly, the native HeLa cells and Supracell-MIL-100 (Fe) were seeded on 96-well plate at the density of 200,000 cells/mL. Then different concentration of DOX (0.01, 0.1, 1.0, 10, 20, and 50 μg/ML) was added in the cell culture media under cell culture condition. After incubation for 2 hours, the viability of the cells or SupraCells was measured by CellTiter-Glo® 2.0 Assay."}
{"smiles": "COc1cccc2c1C(=O)c1c(O)c3c(c(O)c1C2=O)C[C@@](O)(C(=O)CO)C[C@@H]3O[C@H]1C[C@H](N)[C@H](O)[C@H](C)O1", "note": "[doxorubicin]", "values": [{"measurement": "sensitivity of cells to the drug (viability)", "value": "sensitive"}]}
